Assay results published in patent publication US9475841B2, “Melanoma antigen peptide and uses thereof” (INSERM (INSTITUT NATIONAL DE LA SANTE ET DE LA RECHERCHE …, priority 2012, dated 2016).

Key:
[1] = test system: MELOE-1 specific CD4 T cells; test: MELOE-1 CD4+ T cell responses in PBMC from melanoma patients: restimulation with peptides, CD4/IFN-γ (Th1) and CD4/IL4 (Th2) staining; format: cell-based, human; settings: for Th1 responses, % of tested microcultures: 576 tested microcultures from melanoma patients, IFN-γ; for patients in which Th2 responses were detected / patients in which CD4 responses specific for the region were detected: melanoma patients; for patients in which Th2 responses were detected: IL4; for patients in which CD4 responses specific for the region were detected: Table III, Th1 (IFN-γ); for mean % of cytokine producing CD4 T cells, in positive microcultures (IFN-γ): Th1; for Th1 responses (IFN-γ positive microcultures) / Th2 responses (IL4 positive microcultures): positive/tested microcultures; for mean % of cytokine producing CD4 T cells, in positive microcultures (IL4): Th2
Method: PBMC from melanoma patients were stimulated with 10 μM of MELOE-1. After 14 days, the presence of CD4 T cells specific for the different regions of MELOE-1 was assessed by restimulating cells with MELOE-12-21, MELOE-111-30 and MELOE-122-46 peptides, followed by CD4/IFN-γ double staining for the detection of Th1 responses, and by CD4/IL4 double staining for Th2 responses. Between brackets is indicated the mean % of cytokine producing CD4 T cells, in positive microcultures.
(§1) PBMC from healthy donors or melanoma patients (2·10^5 cells/well) were cultured for 14 days with 10 μM of MELOE-1 whole antigen (46 amino acids) in RPMI medium supplemented with 8% HS, 50 IU/ml of rIL-2 (Chiron, France) and L-Glutamin, in 96-well multiplates. Microcultures were then restimulated individually with each overlapping peptide (MELOE-12-21, MELOE-111-30, MELOE-118-37, MELOE-12646 or MELOE-122-46 for melanoma patients) in the presence of 10 μg/mL brefeldin A for 5 hours and the percentage of CD4^+ specific T cells was assessed by TNF-α, IFN-γ or IL-4 intracellular staining. A negative control without peptide was included in all experiments.
In order to confirm the immunogenicity of each MELOE-1 regions in melanoma patients, we stimulated melanoma patients PBMC with the MELOE-1 whole protein, and tested the reactivity of stimulated lymphocytes towards the three most immunogenic regions: 2-21, 11-30, and 22-46. For this study, instead of challenging microcultures with the 18-37 peptide, that appeared poorly immunogenic, we extended the C-terminus region from 26-46 to 22-46, in order to also detect responses to our previously described HLA-DR11-restricted epitope (24-37). […] We tested the induction of CD4 specific responses from MELOE-1 stimulated PBMC of […] melanoma patients. We documented CD4 responses specific for the central region of MELOE-1 (11-30) for 7/9 patients, whereas responses specific for MELOE-12-21 and MELOE-122-46 were respectively detected in 4/9 and 5/9 patients (Table III). These responses were mainly Th1 responses (IFN-g production) while less frequent Th2 responses specific for the three regions of MELOE-1 were detected in 3/9 patients for MELOE-12-21, 2/9 patients for MELOE-111-30 and 5/9 patients for MELOE-122-46 (Table III). […] Concerning Th2 responses, much less frequent, the C-term region appeared to induce more frequently the growth of IL-4 producing CD4 T cells than the two other regions (FIG. 2A). […] In summary, stimulation of patient's PBMC with MELOE-1 induced Th1 responses specific for diverse epitopes located all along the protein sequence, and among the different regions, the central region (11-30) and the C-term region (22-46) appeared to be especially immunogenic in term of frequency of responses.

[2] = test system: MELOE-1 specific CD4+ T cells; test: MELOE-1 CD4+ T cell responses in PBMC from healthy donors: restimulation of microcultures with overlapping peptides, CD4/TNF-α staining; format: cell-based, human; settings: for Microcultures containing MELOE-1 specific CD4+ T cells (TNF-α production): positive/tested microcultures; for donors in which CD4 responses against the region were detected: seven healthy donors
Method: PBMC from healthy donors were stimulated with 10 μM of MELOE-1. After 14 days, the presence of CD4 T cells specific for the different regions of MELOE-1 was assessed by restimulating cells with MELOE-12-21, MELOE-111-30, MELOE-118-37 and MELOE-126-46 peptides, followed by CD4/TNF-α double staining and flow cytometry analysis. Between brackets is indicated the mean % of TNF-α producing CD4 T cells, in positive microcultures. NA: not available.
as §1
Our purpose was to look for the existence of class II helper epitopes all along MELOE-1 sequence (SEQ ID NO:20), in order to document the immunogenicity of the different regions of this melanoma antigen. We stimulated 2·10^7 PBMC from seven healthy donors with MELOE-1 whole antigen and tested, after a 14-day culture period the presence of CD4 T cells specific for each region of the protein. Microcultures were screened for TNFα production by CD4+ T cells, after restimulation with four MELOE-1 derived overlapping peptides (Table I), in an autopresentation assay. […] On the contrary, the central region 18-37, containing an already described DR11-restricted epitope (24-37) located just at the end of this 20-mer peptide (Rogel et al., 2011), induced specific responses in microcultures deriving from only 2/7 donors (HD9 and HD17, both expressing the DR11 element). In these two donors, we detected 6 and 7% of positive microcultures, containing between 0.6 to 3.7% of TNFα producing CD4 T cells.

[3] = patient Pt ≠ 3 (DPβ1*0201/2001, DQβ1*0303/0501, DRβ1*0101/0701)
[4] = donor HD9 (DPβ1*0902/1501, DQβ1*0301, DRβ1*1104/1201)
[5] = donor HD17 (DPβ1*0401/0301, DQβ1*0301/0603, DRβ1*1101/1301)
[6] = donor HD22 (DPβ1*0401/1101, DQβ1*0202, DRβ1*0701)
[7] = donor HD24 (DPβ1*0401/0101, DQβ1*0501/0602, DRβ1*0101/1501)
[8] = donor HD25 (DPβ1*0401/0402, DQβ1*0201, DRβ1*0301)
[9] = donor HD27 (DQβ1*501/0201, DRβ1*0101/0301)

## SCVGYPDEATSREQFLPSEG (SCVGYPDEATSREQFLPSEC) [MELOE-12-21]
[1]
  Th1 responses, % of tested microcultures: 3.3%
  patients in which Th2 responses were detected: 3/9
  patients in which CD4 responses specific for the region were detected: 4/9
[1]; patient Pt ≠ 1
  mean % of cytokine producing CD4 T cells, in positive microcultures (IFN-γ): (0.7%)
  Th1 responses (IFN-γ positive microcultures): 1/48
  Th2 responses (IL4 positive microcultures): 0/48
[1]; patient Pt ≠ 2
  mean % of cytokine producing CD4 T cells, in positive microcultures (IFN-γ): (0.8% ± 0.2)
  Th1 responses (IFN-γ positive microcultures): 4/96
  Th2 responses (IL4 positive microcultures): 0/96
[1]; [3]
  Th1 responses (IFN-γ positive microcultures): 10/96
[1]; patient Pt ≠ 3
  mean % of cytokine producing CD4 T cells, in positive microcultures (IFN-γ): (1.7% ± 2.9)
  Th2 responses (IL4 positive microcultures): 0/96
[1]; patient Pt ≠ 4
  mean % of cytokine producing CD4 T cells, in positive microcultures (IL4): (0.7%)
  Th1 responses (IFN-γ positive microcultures): 0/48
  Th2 responses (IL4 positive microcultures): 1/48
[1]; patient Pt ≠ 5
  mean % of cytokine producing CD4 T cells, in positive microcultures (IFN-γ): (0.6%)
  mean % of cytokine producing CD4 T cells, in positive microcultures (IL4): (0.7% ± 0.1)
  Th1 responses (IFN-γ positive microcultures): 1/48
  Th2 responses (IL4 positive microcultures): 2/48
[1]; patient Pt ≠ 6
  Th1 responses (IFN-γ positive microcultures): 0/48
  Th2 responses (IL4 positive microcultures): 0/48
[1]; patient Pt ≠ 7
  Th1 responses (IFN-γ positive microcultures): 0/48
  Th2 responses (IL4 positive microcultures): 0/48
[1]; patient Pt ≠ 8
  Th1 responses (IFN-γ positive microcultures): 0/48
  Th2 responses (IL4 positive microcultures): 0/48
[1]; patient Pt ≠ 9
  mean % of cytokine producing CD4 T cells, in positive microcultures (IL4): (0.6%)
  Th1 responses (IFN-γ positive microcultures): 0/48
  Th2 responses (IL4 positive microcultures): 1/48
[2]; donor HD9
  mean % of TNF-α producing CD4 T cells, in positive microcultures: (1.4% ± 0.6)
[2]; [4]
  Microcultures containing MELOE-1 specific CD4+ T cells (TNF-α production): 9/96
[2]; donor HD17
  mean % of TNF-α producing CD4 T cells, in positive microcultures: (3.2% ± 1.9)
[2]; [5]
  Microcultures containing MELOE-1 specific CD4+ T cells (TNF-α production): 6/96
[2]; donor HD22
  mean % of TNF-α producing CD4 T cells, in positive microcultures: (1%)
[2]; [6]
  Microcultures containing MELOE-1 specific CD4+ T cells (TNF-α production): 1/96
[2]; donor HD24
  mean % of TNF-α producing CD4 T cells, in positive microcultures: (1.3% ± 0.8)
[2]; [7]
  Microcultures containing MELOE-1 specific CD4+ T cells (TNF-α production): 3/96
[2]; donor HD25
  mean % of TNF-α producing CD4 T cells, in positive microcultures: (0.6% ± 0.1)
[2]; [8]
  Microcultures containing MELOE-1 specific CD4+ T cells (TNF-α production): 3/96
[2]; [9]
  Microcultures containing MELOE-1 specific CD4+ T cells (TNF-α production): 0/96
[2]; donor HD28
  mean % of TNF-α producing CD4 T cells, in positive microcultures: (2.7% ± 1.2)
[2]; donor HD28 (DRβ1*0301)
  Microcultures containing MELOE-1 specific CD4+ T cells (TNF-α production): 30/48
[2]; healthy donor HD28
  % of positive microcultures: 62%
[2]
  donors in which CD4 responses against the region were detected: 6/7

## TSREQFLPSEGAACPPWHPS [MELOE-111-30]
[1]
  Th1 responses, % of tested microcultures: 10.8%
  patients in which Th2 responses were detected: 2/9
  patients in which CD4 responses specific for the region were detected: 7/9
[1]; patient Pt ≠ 1
  mean % of cytokine producing CD4 T cells, in positive microcultures (IFN-γ): (1.4% ± 0.7)
  mean % of cytokine producing CD4 T cells, in positive microcultures (IL4): (1%)
  Th1 responses (IFN-γ positive microcultures): 10/48
  Th2 responses (IL4 positive microcultures): 1/48
[1]; patient Pt ≠ 2
  mean % of cytokine producing CD4 T cells, in positive microcultures (IFN-γ): (1.6% ± 1.2)
  Th1 responses (IFN-γ positive microcultures): 16/96
  Th2 responses (IL4 positive microcultures): 0/96
[1]; [3]
  Th1 responses (IFN-γ positive microcultures): 5/96
[1]; patient Pt ≠ 3
  mean % of cytokine producing CD4 T cells, in positive microcultures (IFN-γ): (16.2% ± 33.2)
  Th2 responses (IL4 positive microcultures): 0/96
[1]; patient Pt ≠ 4
  mean % of cytokine producing CD4 T cells, in positive microcultures (IFN-γ): (0.9% ± 0.5)
  Th1 responses (IFN-γ positive microcultures): 9/48
  Th2 responses (IL4 positive microcultures): 0/48
[1]; patient Pt ≠ 5
  mean % of cytokine producing CD4 T cells, in positive microcultures (IFN-γ): (1.5% ± 1.1)
  Th1 responses (IFN-γ positive microcultures): 6/48
  Th2 responses (IL4 positive microcultures): 0/48
[1]; patient Pt ≠ 6
  mean % of cytokine producing CD4 T cells, in positive microcultures (IFN-γ): (1.5% ± 1.9)
  Th1 responses (IFN-γ positive microcultures): 5/48
  Th2 responses (IL4 positive microcultures): 0/48
[1]; patient Pt ≠ 7
  Th1 responses (IFN-γ positive microcultures): 0/48
  Th2 responses (IL4 positive microcultures): 0/48
[1]; patient Pt ≠ 8
  mean % of cytokine producing CD4 T cells, in positive microcultures (IFN-γ): (2.9% ± 0.04)
  Th1 responses (IFN-γ positive microcultures): 2/48
  Th2 responses (IL4 positive microcultures): 0/48
[1]; patient Pt ≠ 9
  mean % of cytokine producing CD4 T cells, in positive microcultures (IL4): (0.6% ± 0.09)
  Th1 responses (IFN-γ positive microcultures): 0/48
  Th2 responses (IL4 positive microcultures): 9/48
[2]; all healthy donors, FIG. 1, p<0.0001
  frequency of positive microcultures compared with the three other regions of MELOE-1: significantly higher
[2]; donor HD9
  mean % of TNF-α producing CD4 T cells, in positive microcultures: (2.4% ± 1.5)
[2]; [4]
  Microcultures containing MELOE-1 specific CD4+ T cells (TNF-α production): 13/96
[2]; donor HD17
  mean % of TNF-α producing CD4 T cells, in positive microcultures: (8.2% ± 6.5)
[2]; [5]
  Microcultures containing MELOE-1 specific CD4+ T cells (TNF-α production): 26/96
[2]; donor HD22
  mean % of TNF-α producing CD4 T cells, in positive microcultures: (3.9% ± 3.3)
[2]; [6]
  Microcultures containing MELOE-1 specific CD4+ T cells (TNF-α production): 2/96
[2]; donor HD24
  mean % of TNF-α producing CD4 T cells, in positive microcultures: (2% ± 1.4)
[2]; [7]
  Microcultures containing MELOE-1 specific CD4+ T cells (TNF-α production): 46/96
[2]; donor HD25
  mean % of TNF-α producing CD4 T cells, in positive microcultures: (1.2% ± 0.7)
[2]; [8]
  Microcultures containing MELOE-1 specific CD4+ T cells (TNF-α production): 3/96
[2]; donor HD27
  mean % of TNF-α producing CD4 T cells, in positive microcultures: (5% ± 3.4)
[2]; [9]
  Microcultures containing MELOE-1 specific CD4+ T cells (TNF-α production): 5/96
[2]; donor HD28 (DRβ1*0301)
  Microcultures containing MELOE-1 specific CD4+ T cells (TNF-α production): 14/48
[2]
  donors in which CD4 responses against the region were detected: each tested donor
